IC50 and CC50 data for 10 molecules are collected here from ChEMBL document CHEMBL1151552, “Inhibitory activities of herpes simplex viruses type 1 and 2 and human cytomegalovirus by stereoisomers of 2-deoxy-3-oxa-5(E)-(2-bromovinyl)uridines and their 4-thio analogues” (Bioorg Med Chem Lett, 1994).

By IC50 is commonly meant the concentration at which inhibition is half-maximal. The term CC50 denotes the concentration giving 50% cytotoxicity. A low value points to greater toxicity to the cells.

Values after ≈ are worked out from the molar mass of the structure shown. Some results are limits rather than exact numbers.

One data set has as its system F2002 cell line. As to the kind of experiment: Inhibitory activity against human cytomegalo virus (WFI strain) in a plaque reduction assay in flow 2002 human fibroblast cells. It counts as functional, cell-based.
Data set [1] has as its system Vero. As to the kind of experiment: Inhibitory activity against Herpes Simplex virus type 1 (KOS strain) in a Plaque reduction Assay in vero cells. Particulars: Chlorocebus sabaeus. It counts as functional, cell-based.
Data set [2] relates to Vero. As to the kind of experiment: Cytotoxicity in Vero cell line. Particulars: Chlorocebus sabaeus. It counts as functional.
Data set [3] deals with Vero. The data set can be described thus: Inhibitory activity against Herpes Simplex virus type 1 (186 strain) in a Plaque reduction Assay in vero cells. The class given is functional, cell-based. The settings on record: Chlorocebus sabaeus. In general terms: In a plaque reduction assay, fewer plaques than in the control indicate reduced infectivity or spread.
Data set [4] is described as follows: Cytotoxicity in Flow 2002 cell line. The class given is cell-based. Particulars: human, Flow 2002 cells.

Take `O=c1[nH]c(=O)n([C@@H]2CO[C@@H](CO)S2)cc1/C=C/Br`: the IC50 in the data set with F2002 cell line was 80 µg/mL (≈ 239 µM); in the data set on Vero [1], greater than 10 µg/mL; in the data set on Vero [3] it was greater than 10 µg/mL. Besides, the half-maximal cytotoxic concentration (CC50) was found to be 30 µg/mL (≈ 89.5 µM) in the data set with Vero [2] and 100 µg/mL (≈ 298 µM) in data set [4].
For `O=c1[nH]c(=O)n([C@H]2CO[C@H](CO)O2)cc1/C=C/Br`, the IC50 with F2002 cell line is greater than 30 µg/mL; in the data set with Vero [1], 3.4 µg/mL (≈ 10.7 µM); in the data set with Vero [3], greater than 30 µg/mL. Besides, the results for the CC50 (in the data set on Vero [2]; in data set [4]) were 100 µg/mL (≈ 313 µM) and 30 µg/mL (≈ 94 µM), respectively.
As to `Nc1nc2c(ncn2COC(CO)CO)c(=O)[nH]1` [GANCICLOVIR], in the data set with F2002 cell line, half-maximal inhibition (IC50) required 0.1 µg/mL (≈ 0.392 µM). The half-maximal cytotoxic concentration (CC50) in data set [4] is greater than 100 µg/mL.
Turning to `O=c1[nH]c(=O)n([C@@H]2CO[C@@H](CO)O2)cc1/C=C/Br`, the IC50 was 25 µg/mL (≈ 78.3 µM) with F2002 cell line, greater than 30 µg/mL in the data set on Vero [1] and greater than 30 µg/mL with Vero [3]. The half-maximal cytotoxic concentration (CC50) (in the data set on Vero [2]; in data set [4]) was 100 µg/mL (≈ 313 µM) in each case.
Consider `O=c1[nH]c(=O)n([C@@H]2CO[C@H](CO)O2)cc1/C=C/Br`, for which the IC50 in the data set on F2002 cell line was 5 µg/mL (≈ 15.7 µM); in the data set with Vero [1], 0.3 µg/mL (≈ 0.94 µM); in the data set on Vero [3], greater than 30 µg/mL. The CC50 in the data set with Vero [2] was 100 µg/mL (≈ 313 µM); in data set [4], 30 µg/mL (≈ 94 µM).
With `Nc1nc2c(ncn2COCCO)c(=O)[nH]1` [ACYCLOVIR], the IC50 in the data set with Vero [1] was found to be 0.1 µg/mL (≈ 0.444 µM); with Vero [3], 0.5 µg/mL (≈ 2.22 µM). The same molecule yielded a CC50 with Vero [2] greater than 10 µg/mL.
Take `O=c1[nH]c(=O)n([C@H]2CO[C@H](CO)S2)cc1/C=C/Br`: the IC50 in the data set with F2002 cell line was greater than 100 µg/mL; with Vero [1] it was greater than 30 µg/mL; in the data set with Vero [3] it was 30 µg/mL (≈ 89.5 µM). Further, the CC50 was 100 µg/mL (≈ 298 µM) in the data set on Vero [2] and greater than 100 µg/mL in data set [4].
For `O=c1[nH]c(=O)n([C@H]2CO[C@@H](CO)O2)cc1/C=C/Br`, the IC50 in the data set with F2002 cell line is greater than 100 µg/mL; with Vero [1] it was greater than 30 µg/mL; in the data set on Vero [3], greater than 30 µg/mL. Also, the CC50 with Vero [2] was 100 µg/mL (≈ 313 µM); in data set [4] it was greater than 100 µg/mL.
Regarding `O=c1[nH]c(=O)n([C@H]2CO[C@@H](CO)S2)cc1/C=C/Br`, the IC50 in the data set with F2002 cell line was greater than 100 µg/mL; in the data set with Vero [1], greater than 30 µg/mL; in the data set on Vero [3] it was 2.9 µg/mL (≈ 8.65 µM). In addition, the CC50 (with Vero [2]; in data set [4]) was 100 µg/mL (≈ 298 µM) each time.
Take `O=c1[nH]c(=O)n([C@@H]2CO[C@H](CO)S2)cc1/C=C/Br`: the IC50 in the data set on F2002 cell line, with Vero [1] and with Vero [3] was greater than 100 µg/mL in each case. In addition, the CC50 was greater than 100 µg/mL with Vero [2] and 100 µg/mL (≈ 298 µM) in data set [4].
